These results are taken from patent US6355649B1, “Method of treating seborrhea with 5-α reductase inhibitors” (priority 1993, dated 2002).

A short description of data set [1]: Solubility of finasteride polymorphic crystal forms. Type of data set: physicochemical. To be noted: 25° C. How it is done: Finasteride Form I can be prepared by dissolving finasteride in glacial acetic acid (ca. 100 mg/ml) and adding water with stirring until the weight % of water equals or exceeds 84%. The resulting solid phase is collected by filtration and dried under vacuum and at about 50° C. […] The x-ray powder diffraction pattern is characterized by d-spacings of 6.44, 5.69, 5.36, 4.89, 4.55, 4.31, 3.85, 3.59 and 3.14. […] The solubilities in water and cyclohexane at 25° C. are 0.05+0.02 and 0.27+0.05 mg/gm respectively. In addition, Form I of finasteride can be prepared by recrystallization from dry (H2O<1 mg/ml) ethyl acetate and isopropyl acetate. The isolated solids are dried under vacuum at about 50° C. and have the same physical characterization data as given above.
Form II of finasteride can be prepared by dissolving finasteride in glacial acetic acid (ca. 100 mg/ml) and adding water with stirring until the weight % of water equals about 75% but not in excess of 80%. The resulting solid phase is collected by filtration and dried under vacuum and at about 100° C. […] The x-ray powder diffraction pattern is characterized by d-spacings of 14.09, 10.36, 7.92, 7.18, 6.40, 5.93, 5.66, 5.31, 4.68, 3.90, 3.60 and 3.25. […] The solubilities in water and cyclohexane at 25° C. are 0.16+0.02 and 0.42+0.05 mg/gm respectively. In addition, Form II of finasteride can be prepared by recrystallization from ethyl acetate containing between 2 to 30 mg/ml of water and isopropyl acetate containing between 2 to 15 mg/ml of water. The isolated solids are dried under vacuum at about 80° C. and have the same physical characterization data as given above. Form II can also be prepared by heating Form I up to about 150° C., holding for about one hour and cooling back to room temperature. The Form II prepared in this manner has the same physical characterization data as given above.

For data set [2], the system named is DHT content in scalp tissue. Put plainly: DHT content in scalp tissue after oral finasteride in men with male pattern baldness. Type of data set: in vivo. The following applies: orally for 6 weeks, 0.2 mg/day, 1.0 mg/day and 5.0 mgs/day. How it is done: In another test, finasteride was orally administered for 6 weeks to men with male pattern baldness at doses of 0.2 mg/day, 1.0 mg/day and 5.0 mgs/day.

Data set [3] concerns hair growth (androgenic alopecia). Put plainly: Macrophotography and global photography procedure for detection of hair growth. Format: in vivo, patients. To be noted: dosages below 5 mg/day per patient, for example 1 mg/day or 0.2 mg/day; "it can be shown". How it is done: Location: ID card Haircount target area
In these clinical photographs, the only variable allowed is the haircount. Film emulsion, lighting, framing, exposure, and reproduction ratios are held constant.
1. The haircount area on the patient is prepared as follows: A small (˜1 mm) dot tattoo is placed at the beginning of the study at the leading edge of the bald area directly anterior to the center of the vertex bald spot, using a commercial tattooing machine or manually (needle and ink). An area approximately one square inch in size, centered at the tattoo at the leading edge of the balding area, is clipped short (˜2 mm). Cut hairs are removed from the area to be photographed, using tape. Compressed air and/or ethanol wipes may also be used to facilitate removal of cut hairs.
2. […]
A trained technician places a transparency over the photographic print and, using a felt tip pen, places a black dot over each visible hair. The dot map transparency is then counted using image analysis with computer assistance.
Photographs are coded with a random number corresponding to study site, visit number and patient allocation number to insure blinding to time. At Month 6, baseline and Month 6 photographs are counted and data analyzed for interim analysis. At Month 12, baseline, Month 6 and Month 12 photographs are counted and data analyzed for the primary endpoint. […]

With `CC(C)(C)NC(=O)[C@H]1CCC2C3CCC4NC(=O)C=C[C@]4(C)C3CC[C@@]21C` (stereo partly drawn) [Form I, 17β-(N-tert-butylcarbamoyl)-4-aza-5α-androst-1-ene-3-one], in data set [1], the solubility in cyclohexane worked out at 0.27 ± 0.05 mg/gm and the solubility in water was 0.05 ± 0.02 mg/gm.
On the same counts, the results for `CC(C)(C)NC(=O)[C@H]1CCC2C3CCC4NC(=O)C=C[C@]4(C)C3CC[C@@]21C` (stereo partly drawn) [Form II, 17β-(N-tert-butylcarbamoyl)-4-aza-5α-androst-1-ene-3-one] are 0.42 ± 0.05 mg/gm and 0.16 ± 0.02 mg/gm.
Consider `CC(C)(C)NC(=O)[C@H]1CC[C@H]2[C@@H]3CC[C@H]4NC(=O)C=C[C@]4(C)[C@H]3CC[C@]12C` [finasteride, 17β-(N-tert-butylcarbamoyl)-4-aza-5α-androst-1-ene-3-one], for which the “DHT content in scalp tissue” value in data set [2] is recorded as “significant reduction”. Also, the “hair growth / treatment of androgenic alopecia” value in data set [3] was “promote hair growth”.
